Patent US20150057443A1, “Cycloalkyl Amine Compounds” (Prexa Pharmaceuticals, Inc., priority 2013, published 2015)
Like-named read-outs stand apart in the source and are kept apart here.

Key:
human recombinant DAT = human recombinant DAT (Homo sapiens, UniProt Q01959); test: DAT radioligand binding assay (scintillation proximity, [3H]WIN-35428)
Procedure: (§1) Affinity of the compounds for monoamine transporters was determined by in vitro radioligand binding assays using cell membrane preparations derived from HEK293 cell lines stably expressing human recombinant DAT, NET or SERT receptor (Suven Life Sciences, Hyderabad, India).
(§2) Stable DAT cell lines were generated following procedures described in Eshelman et al., Molecular Pharmacology 45, 312-316; 1994. Stable NET cell lines were generated following procedures described in Pacholczyk et al., Nature 350, 350-354, 1991 and Galli et al., Journal Exp. Biol. 198, 2197-2212, 1995. Stable SERT cell lines were generated following procedures described in Ramamoorthy et al., Proc Natl Acad Sci USA 90, 2542-246, 1993.
(§3) Cell membranes were obtained from the above-referenced cell lines by manually homogenizing previously frozen cell pellets in Tris-HCl buffer and serially centrifugating and re-extracting the preparations according procedures described in Subbu et al., Journal Pharmacol ExpTher 327, 982-990, 2008.
(§4) A scintillation proximity assay was used to measure receptor binding. Homogenized membrane preparations (final protein concentration 8-15 ug/well) were pre-incubated with WGA PVT SPA beads (0.5 mg/well) for 5 minutes. Binding was initiated by adding high affinity ligands and test compounds (0.1 nM to 10 μM) or reference/positive control ligands to the membrane-bead complex. Plates were incubated for three hours and raw data counts recorded using a liquid scintillation counter (MicroBetaTriLux Counter, Perkin Elmer). Inhibition constants (Ki) were calculated using GraphPad Prism software (version 4.0).
DAT receptor binding was determined using procedures described in Skolnick et al., European Journal of Pharmacology, 461(2-3):99-104, 2003; and Eshleman et al., The Journal of Pharmacology and Experimental Therapeutics 289:877-885, 1999. A mixture of [3H]WIN-35428 (N-methyl 3H-WIN-35428, Perkin Elmer) and bead-membrane complex was added to wells containing test compound. Wells containing nomifensine maleate ([…], Sigma) were used to define non-specific […] binding. Total radioligand was defined by assay buffer containing 1% DMSO in the presence of [3H]WIN-35428. DAT Ki values were calculated using GraphPad Prism software (version 4.0).

human recombinant SERT = molecular target: T1, human recombinant SERT (Homo sapiens, UniProt P31645); test: SERT radioligand binding assay (scintillation proximity, [3H]citalopram); settings: HEK293 cell membranes expressing human recombinant SERT; [3H]citalopram; SPA; read-out: SERT Ki
T1 construct: membranes)
Procedure: as §1, §2, §3, §4
SERT receptor binding was determined using procedures described in Owens et al., The Journal of Pharmacology and Experimental Therapeutics 283:1305-1322, 1997. A mixture of [3H]citalopram (N-methyl-[3H]citalopram, Perkin Elmer) and bead-membrane complex was added to wells containing test compound. Non-specific binding was determined using wells containing venlafaxine hydrochloride (100 uM, Sigma). Total radioligand was determined using assay buffer containing 1% DMSO in the presence of [3H]citalopram. SERT Ki values were calculated using GraphPad Prism software (version 4.0).

human recombinant NET = molecular target: T2, human recombinant NET (Homo sapiens, UniProt P23975); test: NET radioligand binding assay (scintillation proximity, [3H]nisoxetine); settings: HEK293 cell membranes expressing human recombinant NET; [3H]nisoxetine; SPA; read-out: NET Ki
T2 construct: membranes)
Procedure: as §1, §2, §3, §4
NET receptor binding was determined using procedures described in Mason et al., The Journal of Pharmacology and Experimental Therapeutics 323:720-729, 2007; and Eshleman et al., The Journal of Pharmacology and Experimental Therapeutics289:877-885, 1999. A mixture of [3H]nisoxetine hydrochloride (N-methyl-[3H]nisoxetine, Perkin Elmer) and bead-membrane complex was added to wells containing test compound. Wells containing unlabeled nisoxetine (100 uM, Sigma) were used to define non-specific NET binding. Total radioligand was defined using assay buffer containing 1% DMSO in the presence of [3H]nisoxetine. NET Ki values were calculated using GraphPad Prism software (version 4.0).

T2 sequence (P23975 whole entry): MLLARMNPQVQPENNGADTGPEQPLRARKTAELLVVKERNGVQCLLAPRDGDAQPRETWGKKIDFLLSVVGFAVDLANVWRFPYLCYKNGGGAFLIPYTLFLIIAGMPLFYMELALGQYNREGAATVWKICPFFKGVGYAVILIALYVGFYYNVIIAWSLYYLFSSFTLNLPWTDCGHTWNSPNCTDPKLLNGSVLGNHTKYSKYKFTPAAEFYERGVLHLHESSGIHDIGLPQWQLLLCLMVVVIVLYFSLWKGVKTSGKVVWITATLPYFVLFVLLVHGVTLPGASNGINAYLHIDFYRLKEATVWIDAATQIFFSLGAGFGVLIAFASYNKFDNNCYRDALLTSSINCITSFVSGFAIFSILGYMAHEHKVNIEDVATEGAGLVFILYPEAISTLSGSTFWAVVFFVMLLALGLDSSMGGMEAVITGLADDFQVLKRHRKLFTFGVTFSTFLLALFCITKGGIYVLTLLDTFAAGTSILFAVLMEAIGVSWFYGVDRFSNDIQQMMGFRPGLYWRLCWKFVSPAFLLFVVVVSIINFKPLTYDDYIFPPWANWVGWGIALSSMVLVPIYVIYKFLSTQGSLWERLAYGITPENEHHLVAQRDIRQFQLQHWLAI
Sequence of human recombinant DAT (Q01959 whole entry): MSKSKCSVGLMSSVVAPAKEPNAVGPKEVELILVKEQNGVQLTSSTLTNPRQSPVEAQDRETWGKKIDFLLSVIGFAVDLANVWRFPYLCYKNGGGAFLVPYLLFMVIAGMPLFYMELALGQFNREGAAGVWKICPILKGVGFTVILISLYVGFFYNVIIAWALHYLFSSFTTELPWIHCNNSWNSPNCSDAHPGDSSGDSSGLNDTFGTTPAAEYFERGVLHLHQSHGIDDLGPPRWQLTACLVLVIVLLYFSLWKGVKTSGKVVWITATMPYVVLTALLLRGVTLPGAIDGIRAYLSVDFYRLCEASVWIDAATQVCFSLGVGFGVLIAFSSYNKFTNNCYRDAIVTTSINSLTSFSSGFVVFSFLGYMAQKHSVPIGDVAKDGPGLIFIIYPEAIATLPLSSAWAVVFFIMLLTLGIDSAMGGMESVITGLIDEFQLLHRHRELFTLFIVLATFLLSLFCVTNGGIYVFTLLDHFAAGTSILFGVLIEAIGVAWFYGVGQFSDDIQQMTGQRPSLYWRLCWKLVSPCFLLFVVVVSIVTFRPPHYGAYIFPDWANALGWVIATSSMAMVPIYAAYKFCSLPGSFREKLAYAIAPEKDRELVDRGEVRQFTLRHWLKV
T1 sequence (P31645 whole entry): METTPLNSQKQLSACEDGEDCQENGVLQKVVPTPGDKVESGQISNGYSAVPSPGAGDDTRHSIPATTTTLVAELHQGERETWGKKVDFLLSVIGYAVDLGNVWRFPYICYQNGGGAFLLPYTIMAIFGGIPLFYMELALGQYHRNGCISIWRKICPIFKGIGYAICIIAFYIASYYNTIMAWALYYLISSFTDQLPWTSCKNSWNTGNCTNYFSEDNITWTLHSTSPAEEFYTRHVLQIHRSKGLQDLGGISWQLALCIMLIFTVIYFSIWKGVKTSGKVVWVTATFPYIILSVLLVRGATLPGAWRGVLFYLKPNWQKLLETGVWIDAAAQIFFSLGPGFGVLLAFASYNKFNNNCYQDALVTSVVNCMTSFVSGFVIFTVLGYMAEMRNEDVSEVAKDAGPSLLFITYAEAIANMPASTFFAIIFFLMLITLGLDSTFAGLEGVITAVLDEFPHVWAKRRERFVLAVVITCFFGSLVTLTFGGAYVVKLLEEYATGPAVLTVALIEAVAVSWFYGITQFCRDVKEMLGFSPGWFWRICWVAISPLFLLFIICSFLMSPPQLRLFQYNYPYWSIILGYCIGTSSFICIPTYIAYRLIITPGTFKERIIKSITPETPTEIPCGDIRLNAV

Molecule | Ki (human recombinant DAT; HEK293 cell membranes expressing human recombinant DAT, [3H]WIN-35428, SPA, read-out: DAT Ki) | Ki (human recombinant SERT) | Ki (human recombinant NET) | Ki (human recombinant DAT)
1-{2-[1-(3-Chlorophenyl)cyclobutyl]-2-hydroxyethyl}-3,3-dimethylpiperidin-1-ium chloride [Compound 11] | > 500 nM | > 500 nM | > 500 nM | –
Clc1ccc(C2(CN3CCCCC3)CCC2)cc1 [Compound 1] | – | > 500 nM | > 500 nM | 101 to 500 nM
Clc1cccc(C2(CN3CCCCC3)CCC2)c1 [Compound 2] | – | > 500 nM | > 500 nM | > 500 nM
Clc1ccc(C2(CN3CCCCC3)CCC2)cc1Cl [Compound 3] | – | 101 to 500 nM | 11 to 100 nM | 11 to 100 nM
c1ccc(C2(CN3CCCCC3)CCC2)cc1 [Compound 4, 1-[(1-phenylcyclobutyl)methyl]piperidin-1-ium chloride] | – | > 500 nM | > 500 nM | > 500 nM
OC(CN1CCCCC1)C1(c2ccccc2)CCC1 (stereo not drawn) [Compound 5, 1-[2-hydroxy-2-(1-phenylcyclobutyl)ethyl]piperidin-1-ium chloride] | – | > 500 nM | > 500 nM | > 500 nM
OC(CN1CCCCC1)C1(c2ccc(Cl)cc2)CCC1 (stereo not drawn) [Compound 6, 1-{2-[1-(4-Chlorophenyl)cyclobutyl]-2-hydroxyethyl}piperidin-1-ium chloride] | – | > 500 nM | > 500 nM | > 500 nM
OC(CN1CCCCC1)C1(c2ccc(Cl)c(Cl)c2)CCC1 (stereo not drawn) [Compound 7, 1-{2-[1-(3,4-Dichlorophenyl)cyclobutyl]-2-hydroxyethyl}piperidin-1-ium chloride] | – | > 500 nM | 101 to 500 nM | 11 to 100 nM
OC(CN1CCCCC1)C1(c2cccc(Cl)c2)CCC1 (stereo not drawn) [Compound 12, 1-{2-[1-(3-Chlorophenyl)cyclobutyl]-2-hydroxyethyl}piperidin-1-ium chloride] | – | > 500 nM | > 500 nM | > 500 nM
O[C@H](CN1CCCCC1)C1(c2ccc(Cl)c(Cl)c2)CCC1 [Compound 13, 1-[(2S)-2-[1-(3,4-dichlorophenyl)cyclobutyl]-2-hydroxyethyl]piperidin-1-ium chloride] | – | > 500 nM | 11 to 100 nM | 11 to 100 nM
O[C@@H](CN1CCCCC1)C1(c2ccc(Cl)c(Cl)c2)CCC1 [Compound 14, 1-[(2R)-2-[1-(3,4-dichlorophenyl)cyclobutyl]-2-hydroxyethyl]piperidin-1-ium chloride] | – | > 500 nM | 101 to 500 nM | 11 to 100 nM
OC(CN1CCCCC1)C1(c2ccc3ccccc3c2)CCC1 (stereo not drawn) [Compound 15, 1-{2-hydroxy-2-[1-(naphthalen-2-yl)cyclobutyl]ethyl}piperidin-1-ium chloride] | – | 101 to 500 nM | 11 to 100 nM | 11 to 100 nM
OC(CN1CCCCCC1)C1(c2ccc(Cl)c(Cl)c2)CCC1 (stereo not drawn) [Compound 16, 1-{2-[1-(3,4-Dichlorophenyl)cyclobutyl]-2-hydroxyethyl}azepan-1-ium chloride] | – | > 500 nM | 101 to 500 nM | 11 to 100 nM
OC(CN1CCCC1)C1(c2ccc(Cl)c(Cl)c2)CCC1 (stereo not drawn) [Compound 17, 1-{2-[1-(3,4-Dichlorophenyl)cyclobutyl]-2-hydroxyethyl}pyrrolidin-1-ium chloride] | – | > 500 nM | 101 to 500 nM | 11 to 100 nM
CCN(CC)CC(O)C1(c2ccc(Cl)c(Cl)c2)CCC1 (stereo not drawn) [Compound 18, {2-[1-(3,4-Dichlorophenyl)cyclobutyl]-2-hydroxyethyl}diethylazanium chloride] | – | > 500 nM | 11 to 100 nM | 11 to 100 nM
CC(C)NCC(O)C1(c2ccc(Cl)c(Cl)c2)CCC1 (stereo not drawn) [Compound 19, {2-[1-(3,4-dichlorophenyl)cyclobutyl]-2-hydroxyethyl}(propan-2-yl)azanium chloride] | – | 101 to 500 nM | 11 to 100 nM | 11 to 100 nM
CC(C)(C)NCC(O)C1(c2ccc(Cl)c(Cl)c2)CCC1 (stereo not drawn) [Compound 20, tert-butyl({2-[1-(3,4-dichlorophenyl)cyclobutyl]-2-hydroxyethyl})azanium chloride] | – | 101 to 500 nM | 11 to 100 nM | 11 to 100 nM
OC(CN1CCCC(F)C1)C1(c2ccc(Cl)c(Cl)c2)CCC1 (stereo not drawn) [Compound 21, 1-{2-[1-(3,4-Dichlorophenyl)cyclobutyl]-2-hydroxyethyl}-3-fluoropiperidin-1-ium chloride] | – | > 500 nM | 11 to 100 nM | < 10 nM
OC(CN1CCCC(F)(F)C1)C1(c2ccc(Cl)c(Cl)c2)CCC1 (stereo not drawn) [Compound 22, 1-{2-[1-(3,4-Dichlorophenyl)cyclobutyl]-2-hydroxyethyl}-3,3-difluoropiperidin-1-ium chloride] | – | > 500 nM | 101 to 500 nM | < 10 nM
OC(CN1CCC(F)CC1)C1(c2ccc(Cl)c(Cl)c2)CCC1 (stereo not drawn) [Compound 23, 1-{2-[1-(3,4-Dichlorophenyl)cyclobutyl]-2-hydroxyethyl}-4-fluoropiperidin-1-ium chloride] | – | > 500 nM | 101 to 500 nM | < 10 nM
OC(CN1CCC(F)(F)CC1)C1(c2ccc(Cl)c(Cl)c2)CCC1 (stereo not drawn) [Compound 24, 1-{2-[1-(3,4-Dichlorophenyl)cyclobutyl]-2-hydroxyethyl}-4,4-difluoropiperidin-1-ium chloride] | – | 101 to 500 nM | > 500 nM | < 10 nM
OC(CN1CC2CCC1C2)C1(c2ccc(Cl)c(Cl)c2)CCC1 (stereo not drawn) [Compound 25, 2-{2-[1-(3,4-Dichlorophenyl)cyclobutyl]-2-hydroxyethyl}-2-azabicyclo[2.2.1]heptan-2-ium chloride] | – | 101 to 500 nM | 11 to 100 nM | 11 to 100 nM
OC(CN1CC2CC1CO2)C1(c2ccc(Cl)c(Cl)c2)CCC1 (stereo not drawn) [Compound 27, 5-{2-[1-(3,4-Dichlorophenyl)cyclobutyl]-2-hydroxyethyl}-2-oxa-5-azabicyclo[2.2.1]heptan-5-ium chloride] | – | > 500 nM | 101 to 500 nM | 11 to 100 nM
CC(CF)NCC(O)C1(c2ccc(Cl)c(Cl)c2)CCC1 (stereo not drawn) [Compound 29, {2-[1-(3,4-dichlorophenyl)cyclobutyl]-2-hydroxyethyl}(1-fluoropropan-2-yl)azanium chloride] | – | > 500 nM | 101 to 500 nM | 11 to 100 nM
OC(CN1CCOCC1)C1(c2ccc(Cl)c(Cl)c2)CCC1 (stereo not drawn) [Compound 30, 4-{2-[1-(3,4-Dichlorophenyl)cyclobutyl]-2-hydroxyethyl}morpholin-4-ium chloride] | – | > 500 nM | > 500 nM | 11 to 100 nM
CC1(C)COCCN1CC(O)C1(c2ccc(Cl)c(Cl)c2)CCC1 (stereo not drawn) [Compound 31, 4-{2-[1-(3,4-dichlorophenyl)cyclobutyl]-2-hydroxyethyl}-3,3-dimethylmorpholin-4-ium chloride] | – | 11 to 100 nM | 11 to 100 nM | < 10 nM
N#CC1CCCN(CC(O)C2(c3ccc(Cl)c(Cl)c3)CCC2)C1 (stereo not drawn) [Compound 32, 1-{2-[1-(3,4-dichlorophenyl)cyclobutyl]-2-hydroxyethyl}piperidine-3-carbonitrile] | – | 11 to 100 nM | 101 to 500 nM | < 10 nM
COC1CCCN(CC(O)C2(c3ccc(Cl)c(Cl)c3)CCC2)C1 (stereo not drawn) [Compound 33, 1-{2-[1-(3,4-Dichlorophenyl)cyclobutyl]-2-hydroxyethyl}-3-methoxypiperidin-1-ium chloride] | – | > 500 nM | 101 to 500 nM | < 10 nM
